Assay results reported in US20240270821A1, “GIP/GLP1/GCG TRI-RECEPTOR AGONISTS AND USES THEREOF” (priority 2023, published 2024).
Starred links: 1 amine or outer side, 2 acyl side, 3 side chain; linkers in the order of their positions; H or OH if unused. Non-standard residues stand in square brackets, D forms with d. Groups on a side chain read outwards from the residue. *: point of attachment. C20 diacid = O=C(O)CCCCCCCCCCCCCCCCCCC(=O)*; C18 diacid = O=C(O)CCCCCCCCCCCCCCCCC(=O)*; γGlu = O=C(O)[C@H](CCC(=O)[*:2])N[*:1]; αMe4Pal = C[C@](N)(Cc1ccncc1)C(=O)O; 4Pal = N[C@@H](Cc1ccncc1)C(=O)O; αMeL = CC(C)C[C@](C)(N)C(=O)O; AEEA = NCCOCCOCC(=O)O; Aib = CC(C)(N)C(=O)O

Columns and labels:
Assay type in all cases: cell-based
hGIPR [1] = molecular target: T1, hGIPR (Homo sapiens, UniProt P48546); test: Functional cAMP activity in the presence of 1% HSA; conditions: read-out: cAMP Rel EC50, hGIPR
T1 sequence (P48546 22-466): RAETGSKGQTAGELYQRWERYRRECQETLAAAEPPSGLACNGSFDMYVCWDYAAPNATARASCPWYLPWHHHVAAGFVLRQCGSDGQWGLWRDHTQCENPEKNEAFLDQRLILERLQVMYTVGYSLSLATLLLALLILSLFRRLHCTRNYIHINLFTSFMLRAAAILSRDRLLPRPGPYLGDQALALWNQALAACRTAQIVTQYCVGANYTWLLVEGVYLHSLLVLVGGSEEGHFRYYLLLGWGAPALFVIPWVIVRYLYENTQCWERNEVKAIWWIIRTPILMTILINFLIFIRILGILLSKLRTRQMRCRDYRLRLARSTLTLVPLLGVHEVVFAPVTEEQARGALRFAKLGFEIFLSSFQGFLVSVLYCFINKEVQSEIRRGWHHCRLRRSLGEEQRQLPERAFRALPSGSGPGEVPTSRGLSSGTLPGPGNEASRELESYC

hGLP-1R [2] = molecular target: T2, hGLP-1R (Homo sapiens, UniProt P43220); test: Functional cAMP activity in the presence of 1% HSA; conditions: read-out: cAMP Rel EC50, hGLP-1R
human GcgR = human GcgR (Homo sapiens, UniProt P47871); test: Functional cAMP activity in the presence of 1% HSA; conditions: read-out: cAMP Rel EC50, hGcgR
hGIPR [3] = molecular target: T1, hGIPR; test: Functional cAMP activation in the presence of 0.1% casein (no HSA); conditions: in the presence of 0.1% casein (no HSA); geometric mean; read-out: Relative cAMP EC50, hGIPR;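 as to Relative cAMP EC50, hGIPR: intracellular cAMP rise after 30 min at 37 °C read by HTRF against a standard curve, scaled between buffer alone (0%) and top control ligand concentration (100%), four-parameter fit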;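 as to Relative cAMP EC50, hGLP-1R: intracellular cAMP rise after 30 min at 37 °C read by HTRF, normalized between buffer only (0%) and maximal control ligand (100%), four-parameter variable-slope fit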;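 as to Relative cAMP EC50, hGcgR: intracellular cAMP rise after 30 min at 37 °C, read by HTRF against a cAMP standard curve, scaled from buffer only (0%) to maximal control ligand response (100%)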
hGLP-1R [4] = molecular target: T2, hGLP-1R; test: as above; conditions: in the presence of 0.1% casein (no HSA); geometric mean; read-out: Relative cAMP EC50, hGLP-1R
hGcgR = hGcgR (Homo sapiens, UniProt P47871); test: as above; conditions: in the presence of 0.1% casein (no HSA); geometric mean; read-out: Relative cAMP EC50, hGcgR;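 also: intracellular cAMP rise after 30 min at 37 °C, read by HTRF against a cAMP standard curve, scaled from buffer only (0%) to maximal control ligand response (100%)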
Sequence of hGcgR (P47871 26-477): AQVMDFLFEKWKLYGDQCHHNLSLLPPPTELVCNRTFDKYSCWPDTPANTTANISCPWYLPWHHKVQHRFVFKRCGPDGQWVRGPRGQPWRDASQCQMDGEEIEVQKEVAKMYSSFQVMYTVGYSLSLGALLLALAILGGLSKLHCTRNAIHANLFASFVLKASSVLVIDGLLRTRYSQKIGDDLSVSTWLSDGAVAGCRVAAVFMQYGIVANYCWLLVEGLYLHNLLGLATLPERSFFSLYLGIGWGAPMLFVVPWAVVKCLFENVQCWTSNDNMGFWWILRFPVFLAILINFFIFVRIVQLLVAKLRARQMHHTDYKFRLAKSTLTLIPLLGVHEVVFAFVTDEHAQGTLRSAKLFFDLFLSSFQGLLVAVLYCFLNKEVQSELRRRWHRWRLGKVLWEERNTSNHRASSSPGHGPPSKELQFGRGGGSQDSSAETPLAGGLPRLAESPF

T2 sequence (P43220 24-463): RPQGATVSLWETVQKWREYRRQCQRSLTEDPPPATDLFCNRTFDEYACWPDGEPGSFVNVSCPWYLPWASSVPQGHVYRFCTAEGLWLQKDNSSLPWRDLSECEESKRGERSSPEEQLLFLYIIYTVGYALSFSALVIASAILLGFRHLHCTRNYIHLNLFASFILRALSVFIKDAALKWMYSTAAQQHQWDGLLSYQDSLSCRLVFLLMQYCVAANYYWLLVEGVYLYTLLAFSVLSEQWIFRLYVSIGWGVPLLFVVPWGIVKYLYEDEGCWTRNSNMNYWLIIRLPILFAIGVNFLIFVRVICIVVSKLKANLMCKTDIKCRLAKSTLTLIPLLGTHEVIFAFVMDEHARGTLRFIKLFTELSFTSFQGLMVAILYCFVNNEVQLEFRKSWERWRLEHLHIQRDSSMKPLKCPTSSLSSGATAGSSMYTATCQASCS
Sequence of human GcgR (P47871 26-477): as the sequence (P47871 26-477) above

Substance | EC50 (hGIPR [1]) [nM] | EC50 (hGLP-1R [2]) [nM] | EC50 (human GcgR) [nM] | EC50 (hGIPR [3]) [nM] | EC50 (hGLP-1R [4]) [nM] | EC50 (hGcgR) [nM]
H-Y[Aib]QGTFTSDYSK[αMeL]LDKK([AEEA-γGlu-C20 diacid])AQQAFIQWLIEGGPSSGEPPPSEG-NH2 [Example 314] | 65.9 | 100 | 1030 | 0.345 | 0.274 | 3.7
H-Y[Aib]QGTFTSDYSK[αMeL]LDKK([AEEA-γGlu-C20 diacid])AQQAFVQWLIE[dA]GPSSGEPPPSEG-NH2 [Example 342] | 71.3 | 62 | 2130 | 0.347 | 0.419 | 10.2
H-Y[Aib]QGTFTSDYSK[αMeL]LDKK([AEEA-γGlu-C20 diacid])AQ[Aib]AFVQWLLEGGPSSGEPPPSEG-NH2 [Example 343] | 16.7 | 178 | 475 | 0.184 | 1.31 | 6.83
H-Y[Aib]QGTFTSD[4Pal]SK[αMeL]LDKK([AEEA-γGlu-C18 diacid])AQ[Aib]AFIEYLIA[Aib]GESSGEPPPSGS-NH2 [Example 287] | 9.94 | 562 | 291 | 0.0633 | 4.25 | 2.53
H-Y[Aib]QGTFTSD[4Pal]SK[αMeL]LDKK([AEEA-γGlu-C18 diacid])AQ[Aib]AFIEYLIEGGPSSGAPPPSGS-NH2 [Example 908] | 26.7 | 174 | 980 | 0.246 | 1.2 | 8.11
H-Y[Aib]QGTFTSD[4Pal]SK[αMeL]LDKK([AEEA-γGlu-C18 diacid])AQ[Aib]AFIEYLIE[Aib]GPSSGAPPPSGS-NH2 [Example 801] | 18.1 | 133 | 1200 | 0.147 | 0.938 | 5.51
H-Y[Aib]QGTFTSD[4Pal]SK[αMeL]LDKK([AEEA-γGlu-C18 diacid])AQ[Aib]AFIEYLIE[Aib]GPSSGAPPPSGSE-NH2 [Example 901] | 34 | 193 | 1150 | 0.17 | 1.26 | 9.09
H-Y[Aib]QGTFTSD[4Pal]SK[αMeL]LDKK([AEEA-γGlu-C18 diacid])AQ[Aib]AFIEYLIE[Aib]GPSSGAPPPSGSEE-NH2 [Example 902] | 28.5 | 232 | 1360 | 0.19 | 2.58 | 15.9
H-Y[Aib]QGTFTSD[4Pal]SK[αMeL]LDKK([AEEA-γGlu-C18 diacid])AQ[Aib]AFIEYLIE[Aib]GPSSGAPPPSGSEEE-NH2 [Example 903] | 31.2 | 387 | 1630 | 0.277 | 2.7 | 12.9
H-Y[Aib]QGTFTSD[4Pal]SK[αMeL]LDKK([AEEA-γGlu-C18 diacid])AQ[Aib]AFIEYLIE[dA]GESSGEPPPSGS-NH2 [Example 284] | 59.8 | 271 | 1530 | 0.347 | 1.54 | 9.21
H-Y[Aib]QGTFTSD[4Pal]SK[αMeL]LDKK([AEEA-γGlu-C18 diacid])AQ[Aib]AFIE[αMe4Pal]LIE[Aib]GPSSGAPPPSGS-NH2 [Example 914] | 5.94 | 91.7 | 983 | 0.0582 | 0.888 | 10.6
H-Y[Aib]QGTFTSD[4Pal]SK[αMeL]LDKK([AEEA-γGlu-C18 diacid])AQ[αMe4Pal]AFIEYLIE[Aib]GPSSGAPPPSGS-NH2 [Example 915] | 15.3 | 226 | 174 | 0.0988 | 1.5 | 0.882
H-Y[Aib]QGTFTSD[4Pal]SK[αMeL]LDKK([AEEA-γGlu-C18 diacid])AQ[αMe4Pal]AFIE[αMe4Pal]LIE[Aib]GPSSGAPPPSGS-NH2 [Example 916] | 4.78 | 166 | 158 | 0.0715 | 1.38 | 1.09
